This data set relates to mouse liver microsomes, stability LC-MS/MS, 1 uM. Briefly: Inhibitors of HPGD: Mouse Liver Microsome Profiling. Conditions: at 1 µM, active compounds read high.

Each structure is given as a SMILES string.

Regarding `Cc1cccc(-n2cnc3cc(C(=O)N4CCCCC4)ccc32)c1`, the half-life was 9 min. With `Cc1cc(-c2nnc3n2CCCCC3)c(C)n1-c1ccccc1` the figure was 8 min.

The half-life is how long it takes for the measured level to halve.

These data come from PubChem BioAssay AID504638 (National Center for Advancing Translational Sciences (NCATS), 2011).
